The values that follow come from patent publication US20230146939A1, “TREATMENT FOR HUMAN CORONAVIRUS INFECTION” (THE ADMINISTRATORS OF THE TULANE EDUCATIONAL FUND, priority 2020, published 2023).

For orientation: IC50 means the concentration that inhibits the measured activity by half. Lower therefore signals greater potency in that assay.

The conditions of data set [1]: in vivo; cited from earlier work.
The conditions of data set [2]: cancer patients; cited from earlier work.
For the next data set, the system named is lung tissue. The note with it: saline/ATN-161, no SARS-CoV-2.
The next data set concerns SARS-CoV-2. The conditions noted are these: 1 h.

As for “Ac-PHSCN-NH2 [ATN-161, Ac-PHSCN-NH2] [listing 1 of 2 here]”, the tissue distribution entry in data set [1] is listed as “high tissue distribution”. Besides, in data set [2], the “safety in human clinical trials” value is “no dose limiting toxicity”. For the same substance, in the data set with lung tissue, the “H&E histopathological changes in uninfected mice” value is reported as “no histopathological changes in any of the mice” and the “Masson's trichrome histopathological changes in uninfected mice” value is “no histopathological changes in any of the mice”.
On to “Ac-PHSCN-NH2 [ATN-161, Ac-PHSCN-NH2] [listing 2 of 2 here]”, for which half-maximal inhibition in the data set on SARS-CoV-2 (IC50) required 3.16 µM.
